Marks after values point to notes of the source that are not given here. Ends that are not written are not given here.

One data set has as its system retired breeder rats. In words: Longest visually observed erection and ICP/BP after tadalafil, pVAX-hSlo or both. The data set is classed as in vivo, rat. The settings on record: tadalafil 2.5 mg/kg orally 2 h before; pVAX-hSlo 1000 μg intracorporal 1 month before. On the procedure:
(§1) In a second set of animals (retired breeder, male Sprague Dawley rats) in which the effect of tadalafil was to be measured alone or in combination with pVAX-hSlo, 1000 μg pVAX-hSlo was administered to 10 animals 1 month prior to determination of erectile function and gene expression. Five of these animals were treated with 2.5 mg/kg of tadalafil orally two hours prior to ICP/BP measurement. A third group of five animals were untreated controls, and the fourth group of five animals treated with 2.5 mg/kg of tadalafil orally. two hours prior to ICP/BP measurement.
ICP/BP measurement. ICP/BP was measured essentially as previously described (Christ et al. 1998; Melman et al. 2003). Briefly, animals were anesthetized by intraperitoneal injection of pentobarbital sodium (35 mg/kg). An incision was made in the perineum, and the corpus cavernosum exposed. The cavernous nerves were identified adjacent to the prostate gland. Direct electrostimulation of a cavernous nerve was performed with a delicate stainless steel bipolar hook electrode attached to the multi-jointed clamp. […] Prior to electrostimulation the longest visually observed erection was measured. […] The changes in ICP and systemic BP were recorded at each level of neurostimulation. The mean ICP/BP, standard deviation, and analysis of variance were calculated for each of the treatment groups.

The subject of data set [1] is Vcsa1 and Slo transcripts in corporal tissue. In words: Quantitative RT-PCR of Vcsa1 and Slo transcripts in corpora after tadalafil, pVAX-hSlo or both. The data set is classed as in vivo, rat. Conditions: tadalafil 2.5 mg/kg orally 2 h before; pVAX-hSlo 1000 μg 1 month before; or both. On the procedure:
as §1
RNA Isolation from corporal tissue. Following the ICP/BP measurement, animals were euthanized and corporal tissues isolated and flash frozen in liquid nitrogen. […]
Measurement of gene expression by quantitative RT-PCR. RNA extracted either from corporal tissue or transfected corporal smooth muscle cells was used to analyze gene expression by quantitative RT-PCR. […] Real-time quantitative PCR analysis was performed using the 7300 real-time PCR system (Applied Biosystems, Foster City, Calif.).
The PCR reactions for all samples were performed in 96-well plates, with 2 μl cDNA, 100 nM each primer, and 12.5 μl of Sybr Green in a 25-μl reaction volume. […] The relative quantified value for each target gene in corpora of treated rats is expressed as 2^−(Ct−Cc) (Ct and Cc are the mean threshold cycle differences after normalizing to RPL24). […]

Data set [2] deals with isolated corporal smooth muscle tissue. In words: Contractility (relaxation rate) of isolated corporal smooth muscle strips. Set-up: species or system rat. How it is done: Studies of contractility of isolated smooth muscle tissue were carried out as described previously (Chang et al. 2003, Spektor et al. 2002). Four longitudinal strips of cavernous tissue from the crura of old animals (n=4) were dissected free from the tunica albuginea and were suspended between two small surgical hooks in a tension-measuring device (Multimyograph Model 610M, Copenhagen, Denmark) that allows simultaneous monitoring of four muscle strips. Tissue was equilibrated for 90 min in 6 ml Krebs-Henseleit buffer composed of 110 mM NaCl, 4.8 mM. KCl, 2.5 mM CaCl2, 1.2 mM MgSO4, 1.2 mM KH2PO4, 25 mM NaHCO3, 11 mM glucose, and dextrose in glass-distilled water. Organ chambers were maintained at 37° C. and continuously bubbled with 95% O2 and 5% CO2 to maintain a mean pH of 7.4±0.1. Continuous recording of tension developed by the muscle strips was carried out using Powerlab software (Chart version 4.2.4, ADinstruments, CO) on a dedicated computer. Strips of corpus cavernosum first were precontracted with phenylephrine (10^−6 M). Then, relaxation was induced using CNP (10^−6 M). […] Results from four separate strips from four animals were averaged and the significance determined by the Student's t test.

Data set [3] relates to retired breeder male Sprague-Dawley rats. The data set is described as follows: ICP/BP and blood pressure after intracorporal injection of sialorphin. Type of data set: in vivo, rat. The settings on record: 10 and 100 μg intracorporal. On the procedure: Experiments were carried out on 9- to 10-month-old retired breeder male Sprague-Dawley rats weighing more than 500 g (as described in Melman et al. 2005). When measurements were complete, animals were killed by placement within a CO2 gas chamber. All protocols were approved by the Animal Use Committee and Internal Review board at the Albert Einstein College of Medicine.
The sialorphin peptide (2 mg) was dissolved in 0.5 ml of 0.01 N acetic acid and then was vortexed, and the solution was centrifuged for a few seconds at approximately 1000 g and 4° C. (to gather all the liquid at the bottom of the tube). The stock solution was stored in 25-μl aliquots (100 μg) at −70° C. Before use, the stock was thawed on ice, and phosphate buffered saline (pH 7.4) was added to bring the volume to 150 μl.
Intracorporal microinjection of sialorphin into rat corporal tissue was modified from previously described procedures, where plasmids were injected intracorporeally to investigate their effect on the ICP/BP ratio (Christ et al. 1998, 2004; Melman et al. 2005). […] The changes in ICP and systemic BP were recorded at both levels of neurostimulation. […] Mean ICP/BP (n=7) and standard deviation were calculated before and after treatment. Significant change in the ICP/BP value from that of the pretreatment group was determined by Student's t test.

In the case of `CN1CC(=O)N2[C@H](c3ccc4c(c3)OCO4)c3[nH]c4ccccc4c3C[C@@H]2C1=O` [tadalafil], in the data set with retired breeder rats, the “Longest erection time, difference to untreated control groups” value was “about 100 seconds” and the “Longest measured erection time” value is “approximately 210 seconds”. Also, the “Vcsa1 expression increase versus untreated animals” value in data set [1] is “approximately 4 fold”.
Regarding C-type natriuretic peptide [CNP], the “Increase in the relaxation rate of the tissue” value in data set [2] (1 μM CNP, versus carrier) is recorded as 67%. Moreover, the “Rate of Tension Loss” value in data set [2] (strips precontracted with 1 μM phenylephrine, 1 μM CNP and/or 1 μg/ml sialorphin) was 0.087* g/min.
Consider QHNPR [sialorphin, QHNPR], for which the “Effect on systemic blood pressure” value in data set [3] is listed as “no effect”.

These data come from US20090042208A1, “Assays for erectile and bladder dysfunction and vascular health” (priority 2007, published 2009).
